Measured values from ChEMBL document CHEMBL1141723, “Specific targeting of metzincin family members with small-molecule inhibitors: progress toward a multifarious challenge” (Bioorg Med Chem, 2008).
The source made the active and inactive calls. The rule behind the calls is not given here.

How the values were obtained:
[1] = biological target: Macrophage metalloelastase (Homo sapiens, UniProt P39900); assay: Inhibition of MMP12
[2] = biological target: 72 kDa type IV collagenase (Homo sapiens, UniProt P08253)
72 kDa type IV collagenase, sequence (P08253 whole entry): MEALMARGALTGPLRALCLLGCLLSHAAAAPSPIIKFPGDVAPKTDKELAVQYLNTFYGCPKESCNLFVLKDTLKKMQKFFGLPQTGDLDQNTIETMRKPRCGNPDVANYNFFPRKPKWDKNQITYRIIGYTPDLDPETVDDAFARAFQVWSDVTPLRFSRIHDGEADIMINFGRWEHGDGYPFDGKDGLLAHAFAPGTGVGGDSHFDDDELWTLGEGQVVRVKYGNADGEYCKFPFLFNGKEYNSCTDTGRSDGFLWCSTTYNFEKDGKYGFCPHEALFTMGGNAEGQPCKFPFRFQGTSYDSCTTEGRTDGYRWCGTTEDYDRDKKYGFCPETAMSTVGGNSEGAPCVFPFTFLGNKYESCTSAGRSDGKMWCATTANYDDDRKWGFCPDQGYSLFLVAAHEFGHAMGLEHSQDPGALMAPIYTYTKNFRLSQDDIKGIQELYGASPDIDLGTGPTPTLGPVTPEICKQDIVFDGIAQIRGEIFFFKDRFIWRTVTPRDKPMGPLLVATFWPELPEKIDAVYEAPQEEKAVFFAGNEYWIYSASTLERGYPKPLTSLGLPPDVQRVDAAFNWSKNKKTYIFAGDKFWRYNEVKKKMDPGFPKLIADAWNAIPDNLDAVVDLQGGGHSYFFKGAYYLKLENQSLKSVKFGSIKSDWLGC

Collagenase 3 [3] = biological target: T1, Collagenase 3 (Homo sapiens, UniProt P45452); assay: Inhibition of MMP13
[4] = biological target: Matrix metalloproteinase-14 (Homo sapiens, UniProt P50281); assay: Inhibition of MMP14
Interstitial collagenase = biological target: T2, Interstitial collagenase (Homo sapiens, UniProt P03956)
T2 sequence (P03956 whole entry): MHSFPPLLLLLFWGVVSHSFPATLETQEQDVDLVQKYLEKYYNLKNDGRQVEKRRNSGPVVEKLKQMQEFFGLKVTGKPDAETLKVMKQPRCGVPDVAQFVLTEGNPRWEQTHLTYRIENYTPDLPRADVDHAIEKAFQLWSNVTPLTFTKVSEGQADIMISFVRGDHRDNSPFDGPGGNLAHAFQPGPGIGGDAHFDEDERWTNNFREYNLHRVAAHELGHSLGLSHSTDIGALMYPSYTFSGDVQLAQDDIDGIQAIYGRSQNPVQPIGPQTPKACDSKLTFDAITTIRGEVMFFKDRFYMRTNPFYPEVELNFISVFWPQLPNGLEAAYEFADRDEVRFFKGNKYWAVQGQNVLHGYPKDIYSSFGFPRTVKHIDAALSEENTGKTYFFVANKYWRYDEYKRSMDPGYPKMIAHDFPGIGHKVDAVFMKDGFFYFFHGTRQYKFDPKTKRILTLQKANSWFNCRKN

[5] = biological target: Disintegrin and metalloproteinase domain-containing protein 17 (Homo sapiens, UniProt P78536); assay: Inhibition of TACE
[6] = biological target: Matrix metalloproteinase-9 (Homo sapiens, UniProt P14780); assay: Inhibition of MMP9
Matrix metalloproteinase-9, sequence (P14780 whole entry): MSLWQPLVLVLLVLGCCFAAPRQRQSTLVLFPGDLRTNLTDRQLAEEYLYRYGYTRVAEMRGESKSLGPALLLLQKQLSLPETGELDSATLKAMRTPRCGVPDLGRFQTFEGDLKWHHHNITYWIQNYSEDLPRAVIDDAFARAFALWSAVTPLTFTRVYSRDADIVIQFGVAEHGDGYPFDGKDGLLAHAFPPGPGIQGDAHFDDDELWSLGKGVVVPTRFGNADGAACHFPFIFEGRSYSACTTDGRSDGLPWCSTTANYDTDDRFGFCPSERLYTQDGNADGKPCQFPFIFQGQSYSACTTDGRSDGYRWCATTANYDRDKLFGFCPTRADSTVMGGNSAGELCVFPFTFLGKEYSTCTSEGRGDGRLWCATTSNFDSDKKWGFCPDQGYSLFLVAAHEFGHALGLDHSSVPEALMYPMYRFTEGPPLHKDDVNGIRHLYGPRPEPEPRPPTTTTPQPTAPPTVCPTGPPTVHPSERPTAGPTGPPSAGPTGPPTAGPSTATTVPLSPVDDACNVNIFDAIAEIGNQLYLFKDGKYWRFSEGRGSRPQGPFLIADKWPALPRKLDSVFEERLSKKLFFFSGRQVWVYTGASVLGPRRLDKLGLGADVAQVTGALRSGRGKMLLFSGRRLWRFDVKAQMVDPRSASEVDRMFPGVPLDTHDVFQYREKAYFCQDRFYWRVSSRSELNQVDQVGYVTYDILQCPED

Stromelysin-1 = Stromelysin-1 (Homo sapiens, UniProt P08254)
Stromelysin-1, sequence (P08254 whole entry): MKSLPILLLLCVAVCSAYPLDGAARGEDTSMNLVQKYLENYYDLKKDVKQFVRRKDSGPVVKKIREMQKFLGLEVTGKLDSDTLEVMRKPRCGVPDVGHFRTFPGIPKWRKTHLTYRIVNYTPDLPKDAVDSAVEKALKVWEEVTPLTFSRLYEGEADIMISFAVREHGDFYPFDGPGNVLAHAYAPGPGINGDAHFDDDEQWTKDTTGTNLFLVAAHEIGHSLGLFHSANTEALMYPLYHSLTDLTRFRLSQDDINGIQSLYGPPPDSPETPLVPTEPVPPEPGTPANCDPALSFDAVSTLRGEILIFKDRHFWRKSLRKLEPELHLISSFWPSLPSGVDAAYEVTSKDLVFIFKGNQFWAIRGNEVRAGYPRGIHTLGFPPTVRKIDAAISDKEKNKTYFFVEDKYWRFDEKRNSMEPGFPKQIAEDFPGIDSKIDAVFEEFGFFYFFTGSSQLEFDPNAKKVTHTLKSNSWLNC

Neutrophil collagenase = Neutrophil collagenase (Homo sapiens, UniProt P22894); assay: Inhibition of MMP8
Neutrophil collagenase, sequence (P22894 whole entry): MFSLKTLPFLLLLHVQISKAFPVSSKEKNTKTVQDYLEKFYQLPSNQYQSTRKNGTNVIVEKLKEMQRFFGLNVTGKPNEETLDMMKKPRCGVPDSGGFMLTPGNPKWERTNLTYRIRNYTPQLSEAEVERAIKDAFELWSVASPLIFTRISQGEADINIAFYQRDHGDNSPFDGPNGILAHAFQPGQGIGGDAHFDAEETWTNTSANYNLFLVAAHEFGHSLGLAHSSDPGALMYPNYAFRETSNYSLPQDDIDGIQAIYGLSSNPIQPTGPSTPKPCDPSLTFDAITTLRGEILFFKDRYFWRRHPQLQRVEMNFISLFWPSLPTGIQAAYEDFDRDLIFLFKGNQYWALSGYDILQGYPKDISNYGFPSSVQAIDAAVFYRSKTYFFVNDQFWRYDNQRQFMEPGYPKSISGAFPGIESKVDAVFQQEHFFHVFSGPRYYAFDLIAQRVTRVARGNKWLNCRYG

Matrilysin = biological target: T3, Matrilysin (Homo sapiens, UniProt P09237)
T3 sequence (P09237 whole entry): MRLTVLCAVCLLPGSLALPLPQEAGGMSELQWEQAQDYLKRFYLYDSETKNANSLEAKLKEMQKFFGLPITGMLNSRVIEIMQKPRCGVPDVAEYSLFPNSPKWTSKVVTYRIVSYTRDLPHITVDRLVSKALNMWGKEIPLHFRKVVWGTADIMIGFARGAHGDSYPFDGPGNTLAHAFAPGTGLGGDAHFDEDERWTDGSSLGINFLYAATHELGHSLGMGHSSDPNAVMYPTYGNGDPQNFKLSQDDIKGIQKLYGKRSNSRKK

[7] = biological target: Angiotensin-converting enzyme (Homo sapiens, UniProt P12821); assay: Inhibition of ACE
Neprilysin = Neprilysin (Homo sapiens, UniProt P08473); assay: Inhibition of NEP
Stromelysin-3 = Stromelysin-3 (Homo sapiens, UniProt P24347); assay: Inhibition of MMP11
[8] = biological target: Disintegrin and metalloproteinase domain-containing protein 33 (Homo sapiens, UniProt Q9BZ11); assay: Inhibition of ADAM33
[9] = Selectivity for bovine aggrecanase over MMP1
[10] = Inhibition of bovine aggrecanase; parameters: species or system Bos taurus
[11] = Selectivity for bovine aggrecanase over MMP2
[12] = biological target: Disintegrin and metalloproteinase domain-containing protein 17 (Sus scrofa, UniProt O77636); assay: Inhibition of pig TACE
Disintegrin and metalloproteinase domain-containing protein 17 (Sus scrofa, UniProt O77636), sequence (O77636 whole entry, the tested form may be a part): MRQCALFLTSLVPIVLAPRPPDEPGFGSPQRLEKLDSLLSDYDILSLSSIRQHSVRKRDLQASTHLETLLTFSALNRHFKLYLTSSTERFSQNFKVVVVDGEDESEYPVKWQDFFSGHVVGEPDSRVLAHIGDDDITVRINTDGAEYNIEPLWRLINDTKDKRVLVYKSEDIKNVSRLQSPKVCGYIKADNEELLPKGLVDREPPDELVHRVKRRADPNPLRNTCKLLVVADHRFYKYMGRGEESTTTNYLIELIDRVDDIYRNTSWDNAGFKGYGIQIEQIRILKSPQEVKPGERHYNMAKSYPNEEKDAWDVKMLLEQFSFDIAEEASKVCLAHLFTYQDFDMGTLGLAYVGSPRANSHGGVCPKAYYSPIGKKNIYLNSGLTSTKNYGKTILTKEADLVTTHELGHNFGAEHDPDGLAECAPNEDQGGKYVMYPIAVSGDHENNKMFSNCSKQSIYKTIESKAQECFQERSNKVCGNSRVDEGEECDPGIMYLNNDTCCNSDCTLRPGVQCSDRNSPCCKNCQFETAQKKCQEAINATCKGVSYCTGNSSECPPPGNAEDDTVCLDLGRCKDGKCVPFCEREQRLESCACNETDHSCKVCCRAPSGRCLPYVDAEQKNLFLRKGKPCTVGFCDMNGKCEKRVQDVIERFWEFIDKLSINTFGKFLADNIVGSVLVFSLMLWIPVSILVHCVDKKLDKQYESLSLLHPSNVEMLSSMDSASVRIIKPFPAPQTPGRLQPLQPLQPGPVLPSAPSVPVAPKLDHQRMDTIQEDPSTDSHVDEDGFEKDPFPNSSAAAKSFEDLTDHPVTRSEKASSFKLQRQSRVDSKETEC

[13] = biological target: Matrix metalloproteinase-15 (Homo sapiens, UniProt P51511)
Matrix metalloproteinase-15, sequence (P51511 whole entry): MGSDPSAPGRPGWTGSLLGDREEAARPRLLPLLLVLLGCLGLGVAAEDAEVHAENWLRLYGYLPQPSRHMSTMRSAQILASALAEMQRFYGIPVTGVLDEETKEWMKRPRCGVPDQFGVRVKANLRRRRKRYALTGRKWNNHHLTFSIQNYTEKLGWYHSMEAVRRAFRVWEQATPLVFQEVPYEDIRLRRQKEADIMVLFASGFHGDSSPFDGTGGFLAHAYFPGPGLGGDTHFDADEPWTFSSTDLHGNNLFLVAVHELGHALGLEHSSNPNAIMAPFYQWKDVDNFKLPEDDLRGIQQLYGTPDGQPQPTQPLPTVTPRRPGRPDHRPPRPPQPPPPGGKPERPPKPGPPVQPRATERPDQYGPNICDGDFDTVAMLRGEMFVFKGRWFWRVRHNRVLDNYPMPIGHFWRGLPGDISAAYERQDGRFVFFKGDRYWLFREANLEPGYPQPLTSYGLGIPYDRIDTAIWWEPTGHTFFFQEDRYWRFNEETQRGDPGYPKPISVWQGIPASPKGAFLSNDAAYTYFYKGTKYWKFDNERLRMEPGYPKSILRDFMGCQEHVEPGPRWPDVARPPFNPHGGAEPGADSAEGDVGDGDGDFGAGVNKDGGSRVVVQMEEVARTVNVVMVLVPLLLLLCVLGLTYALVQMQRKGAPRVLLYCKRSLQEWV

[14] = biological target: A disintegrin and metalloproteinase with thrombospondin motifs 5 (Homo sapiens, UniProt Q9UNA0); assay: Inhibition of ADAMTS5
[15] = biological target: T4, Disintegrin and metalloproteinase domain-containing protein 10 (Homo sapiens, UniProt O14672); assay: Inhibition of ADAM10
T4 sequence (O14672 whole entry): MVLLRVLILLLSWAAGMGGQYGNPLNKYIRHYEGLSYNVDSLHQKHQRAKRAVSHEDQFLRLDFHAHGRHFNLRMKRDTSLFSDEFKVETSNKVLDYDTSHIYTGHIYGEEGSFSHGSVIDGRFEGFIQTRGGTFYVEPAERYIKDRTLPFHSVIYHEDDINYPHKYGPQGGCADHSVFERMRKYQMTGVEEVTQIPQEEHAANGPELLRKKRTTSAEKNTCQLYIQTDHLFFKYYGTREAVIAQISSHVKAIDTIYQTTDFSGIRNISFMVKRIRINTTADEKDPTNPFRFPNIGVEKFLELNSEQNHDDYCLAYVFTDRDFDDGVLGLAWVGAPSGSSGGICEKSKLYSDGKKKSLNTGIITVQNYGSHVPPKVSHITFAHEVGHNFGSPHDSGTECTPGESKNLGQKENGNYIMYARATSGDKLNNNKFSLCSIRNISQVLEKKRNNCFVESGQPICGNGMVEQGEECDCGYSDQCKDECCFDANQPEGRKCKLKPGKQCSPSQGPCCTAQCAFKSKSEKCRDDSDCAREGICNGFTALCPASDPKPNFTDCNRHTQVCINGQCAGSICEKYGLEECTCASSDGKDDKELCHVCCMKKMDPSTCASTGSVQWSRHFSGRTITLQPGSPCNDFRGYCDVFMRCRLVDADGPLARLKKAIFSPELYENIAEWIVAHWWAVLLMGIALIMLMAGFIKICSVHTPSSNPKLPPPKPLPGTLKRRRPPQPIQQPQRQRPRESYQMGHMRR

Stromelysin-2 = Stromelysin-2 (Homo sapiens, UniProt P09238); assay: Inhibition of MMP10
Stromelysin-2, sequence (P09238 whole entry): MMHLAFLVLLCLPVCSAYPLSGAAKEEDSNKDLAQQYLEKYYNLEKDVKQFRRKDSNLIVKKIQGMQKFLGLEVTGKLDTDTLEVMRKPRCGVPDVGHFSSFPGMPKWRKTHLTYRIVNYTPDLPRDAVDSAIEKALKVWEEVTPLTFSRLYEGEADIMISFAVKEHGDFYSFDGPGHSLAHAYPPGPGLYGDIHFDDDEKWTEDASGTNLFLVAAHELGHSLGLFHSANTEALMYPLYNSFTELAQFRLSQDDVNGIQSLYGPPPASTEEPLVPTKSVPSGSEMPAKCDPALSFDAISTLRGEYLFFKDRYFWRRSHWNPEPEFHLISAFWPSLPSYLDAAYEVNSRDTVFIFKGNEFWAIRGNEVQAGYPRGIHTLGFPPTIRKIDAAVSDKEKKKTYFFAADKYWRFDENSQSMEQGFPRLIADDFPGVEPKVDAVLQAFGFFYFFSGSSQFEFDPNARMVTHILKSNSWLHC

[16] = biological target: A disintegrin and metalloproteinase with thrombospondin motifs 1 (Homo sapiens, UniProt Q9UHI8); assay: Inhibition of ADAMTS1
[17] = Selectivity for pig TACE over MMP8
[18] = Selectivity for pig TACE over MMP1
[19] = biological target: Matrix metalloproteinase-16 (Homo sapiens, UniProt P51512); assay: Inhibition of MMP16
[20] = Selectivity for pig TACE over MMP9
[21] = Selectivity for pig TACE over MMP3
[22] = Selectivity for pig TACE over MMP7
[23] = Selectivity for pig TACE over MMP2
Collagenase 3 [24] = biological target: T1, Collagenase 3; assay: Inhibition of MMP13 at 10 ug/mL

Macrophage metalloelastase, sequence (P39900 whole entry): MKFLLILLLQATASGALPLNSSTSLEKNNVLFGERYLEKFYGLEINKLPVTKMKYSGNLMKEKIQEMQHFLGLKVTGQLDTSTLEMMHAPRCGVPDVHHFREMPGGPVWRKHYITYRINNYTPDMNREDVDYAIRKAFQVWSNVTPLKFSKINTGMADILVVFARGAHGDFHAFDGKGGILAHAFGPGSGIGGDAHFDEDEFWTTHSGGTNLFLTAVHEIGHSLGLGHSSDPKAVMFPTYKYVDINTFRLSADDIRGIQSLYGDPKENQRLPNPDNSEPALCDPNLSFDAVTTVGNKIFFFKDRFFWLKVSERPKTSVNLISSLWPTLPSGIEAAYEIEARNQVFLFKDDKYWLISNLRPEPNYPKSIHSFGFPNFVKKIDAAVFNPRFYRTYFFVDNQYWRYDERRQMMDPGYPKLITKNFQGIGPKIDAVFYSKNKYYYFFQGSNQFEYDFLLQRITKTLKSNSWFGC

Ki [2] [µM]	Ki [4] [µM]	Ki (Interstitial collagenase) [µM]	Ki [6] [µM]	Ki (Stromelysin-1) [µM]	Ki (Neutrophil collagenase) [µM]	Ki [13] [µM]	Ki (Stromelysin-2) [µM]	Structure (SMILES)	Ki [1] [µM]	Ki (Collagenase 3 [3]) [µM]	other results
								Cc1cc(COc2ccc([C@]3(C)CCN([C@H](C)C(=O)NO)C3=O)cc2)c2ccccc2n1			Ki [8]: 0.015 µM; IC50 (tissue or blood): 0.00035 µM
								CS(=O)(=O)N1CCC([C@H](C(=O)NO)[C@@H](Cc2cccc(O)c2)C(=O)N[C@H]2c3ccccc3C[C@H]2O)CC1			fold change (FC) [9]: > 100; IC50 [10]: 0.003 µM; fold change (FC) [11]: > 100
> 3	0.163	> 5	> 3	0.762	2.05	1.7	1.65	Cc1cc(COc2ccc(C(=O)N[C@@]3(CC(=O)NO)C[C@@H](C)N[C@@H](C)C3)cc2)c2ccccc2n1		> 5	Ki [12]: 0.0028 µM; Ki [14]: 1.9 µM; Ki [15]: > 3 µM; Ki [16]: 7.8 µM
> 2	> 2	> 2	> 2	> 2	0.2	> 2	> 2	O=C1NCCCC[C@@H](C(=O)NCC(=O)N2CCOCC2)NC(=O)[C@H](Cc2ccc(-c3ccccc3C(F)(F)F)cc2)[C@@H](C(=O)NO)CCCO1	> 2		fold change (FC) [17]: 45; fold change (FC) [18]: > 100; Ki [19]: > 2 µM; fold change (FC) [20]: > 100; fold change (FC) [21]: > 100; fold change (FC) [22]: > 100; fold change (FC) [23]: > 100
								O=C(NCCCCN1CCOCC1)c1cc2ccccc2o1			Activity (Collagenase 3 [24]): inactive

Structure (SMILES)	Ki [2] [µM]	Ki [4] [µM]	Ki (Interstitial collagenase) [µM]	Ki [6] [µM]	Ki (Stromelysin-1) [µM]	Ki (Neutrophil collagenase) [µM]	Ki [13] [µM]	Ki (Stromelysin-2) [µM]	Ki [1] [µM]	Ki (Collagenase 3 [3]) [µM]	other results
NC(=O)[C@H](CCC(=O)O)NC(=O)[C@H](CCC(=O)O)NC(=O)[C@H](Cc1cc(-c2ccc(-c3cccc(Cl)c3)cc2)no1)CP(=O)(O)c1ccc(Br)cc1	0.192	0.14	67	1.27	0.04	0.271			0.00019	0.049	Ki [5]: > 100 µM; Ki (Matrilysin): 0.626 µM; Ki [7]: > 100 µM; Ki (Neprilysin): > 100 µM; Ki (Stromelysin-3): 18.4 µM
